According to patent US11147816B2, “Composition for inducing differentiation and protection of neural stem cells and method for inducing neuro-regeneration using the same composition” (GENUV Inc., priority 2016, dated 2021):

Columns and labels:
[1] = test system: mouse adult neural stem cells; details: trametinib 10 nM, 100 nM, memantine 5 μM, 10 μM, 4 days
Procedure: NSC were isolated from the subventricular zone of week 8 mouse brain, treated with 20 ng/ml human basic fibroblast growth factor (bFGF) and 20 ng/ml human epidermal growth factor (EGF) in an IPM medium, and cultured as a suspension in 24-well plates for 7 days.
Two days before the isolation of single cells, 6-well plates were prepared by treating the wells with 10 μg/ml poly-L-ornithine solution and incubating overnight at room temperature for coating. The next day, poly-L-ornithine solution was removed and the plates were washed 3 times with sterilized triple distilled water. […] The culture solution used is N2 culture medium (supplemented with 20 ng/ml bFGF and 20 ng/ml EGF). Right before seeding, the coating solution was suctioned out, and the single cells were uniformly seeded into the culture plate before the plate dried up. Cells were allowed to attach to the plates for about one minute, and after checking that cells were sufficiently attached, an additional 1.5 ml of culture medium (N2 culture medium with 20 ng/ml bFGF and 20 ng/ml EGF) was added to the cells and cultured in a 37° C. incubator for 24 hours.
Wells not treated with amyloid-beta were left to use as negative controls.
Gibco's (Waltham, Mass.) human Aβ (1-42) was purchased to use for the amyloid-beta (Aβ), and the following process was followed to create oligomers. First, amyloid-beta was dissolved in 100% HFIP (1,1,1,3,3,3-hexafluoro-2-propanol) (Sigma, cat#.105228) to obtain a concentration of 1 mg/ml and vortexed at room temperature for 1 hour. Then, it was dried for 10 minutes in a speed Vac, after which DMSO (Sigma, cat#.D2650) was added to bring the concentration to 5 mM and then lightly vortexed at room temperature for 10 minutes. […] The solution was incubated at 4° C. for 24 hours and then added into the cultured cells.
The NCSs were cultured with the daily addition of EGF, bFGF, amyloid-beta, and test materials for 4 days.

[2] = test system: mouse embryonic neural stem cells; assay: qRT-PCR of relative mRNA expression of neuronal markers in mouse embryonic NSC (Examples 4-1, 4-2, 6); type: cell-based; details: 1 nM
Procedure: Isopropanol (Ducsan, GyunggiDo, Korea, cat#. 67-63-0) was added and mixed for RNA isolation, then centrifuged again to remove the supernatant and obtain the pellet. The RNA pellet was resuspended in 75% ethanol (Ducsan, cat#. 64-17-15), centrifuged, and the supernatant removed. The pellet was then resuspended in sterilized triple distilled water to obtain the mRNA, incubated for 10 minutes at 55° C., and stored at −80° C.
Sterilized triple distilled water, […] oligo dT, and 1 mM dNTP were added to the RNA and incubated for 5 minutes at 65° C. This was followed by the addition of 5X First-strand buffer, 10 mM DTT, and M-MLV reverse transcriptase and incubated at 42° C. for 1 hour, then at 72° C. for 15 minutes, and at 4° C. for 30 minutes. The synthesized cDNA was stored at −20° C.
The term relative mRNA expression level signifies that in order to normalize each group's total RNA level, the mRNA expression level of each differentiation marker is divided by the expression level of GAPDH whose expression level is fairly constant across cells, and then the values of each test material are compared with those of the controls (undifferentiated NSC) in each group.

5XFAD mouse = assay: Nissl, NeuN and DCX staining in the hippocampal dentate gyrus (Example 9-2); type: in vivo; details: orally daily for 28 days
Procedure: After placing in 0.1% cresyl violet (Sigma, cat#. C5042) solution at room temperature for 15 minutes, they were dehydrated by sequentially immersing in 80%, 90%, 100% alcohol, and xylene. Coverslips were put on the slides and the neurons examined.
NeuN staining was performed by the same method as described in Example 8 as was DCX staining, but using anti-DCX antibodies (Santa Cruz, cat#. sc271390) instead of anti-NeuN antibodies.

[3] = 10 nM, 25 nM, 100 nM for 2 days

`CC(=O)Nc1cccc(-n2c(=O)n(C3CC3)c(=O)c3c(Nc4ccc(I)cc4F)n(C)c(=O)c(C)c32)c1` [trametinib, N-(3-{3-cyclopropyl-5-[(2-fluoro-4-iodophenyl)amino]-6,8-dimethyl-2,4,7-trioxo-3,4,6,7-tetrahydropyrido[4,3-d]pyrimidin-1(2H)-yl}phenyl)acetamide] was tested, and the “cell toxicity / cell death (morphology)” value ([1]; AS703026 10 μM) was “did not elicit cell toxicity”, the “differentiation of NSC into neurons (morphology)” value ([1]; with or without 10 μM oligomeric Aβ(1-42)) was “readily induced the differentiation of NSC into neurons” and the “differentiation-inducing effect (Tuj1, TH mRNA)” value [2] was “exerted its differentiation-inducing effect”. The “mRNA expression of GABAergic neuron marker Gad1” value [2, 3] was “increased with the increase in concentration of the trametinib added”, the “mRNA expression of cholinergic neuron marker ChAT” value [2, 3] was “increased with the increase in concentration of the trametinib added” and the “mRNA expression of dopaminergic neuron marker TH” value [2, 3] was “increased with the increase in concentration of the trametinib added”. The “mRNA expression of motor neuron marker Isl1” value [2, 3] was “increased with the increase in concentration of the trametinib added”, the “immature neurons stained by DCX in the dentate gyrus” value (5XFAD mouse) was “seen to be present” and the “number of cells with morphology of Type 2 or Type 3 cells in the subgranular zone of the dentate gyrus (Nissl, NeuN)” value (5XFAD mouse) was “increased considerably”.
